From US20100298244A1, “COMPOSITION FOR THE PREVENTION AND THE TREATMENT OF HELICOBACTER PYLORI INFECTION” (NATIONAL TAIWAN UNIVERSITY, priority 2009, published 2010)

Tested on: 20 Helicobacter pylori strains
Experiment: MIC by agar dilution method
Assay type: cell-based

MIC Range (20 H. pylori strains (10 resistant to metronidazole and clarithromycin, 10 sensitive)): >4000 µg/mL
MIC (Helicobacter pylori, 20 H. pylori strains, read-out: MIC For 50% of strains): > 4000 µg/mL
MIC90 (Helicobacter pylori, 20 H. pylori strains, read-out: MIC For 90% of strains (MIC90)): > 4000 µg/mL
SMILES: CC(=O)N[C@H]1[C@H]([C@H](O)[C@H](O)CO)OC(O)(C(=O)O)C[C@@H]1O (stereo partly shown) [Sialic acid, N-Acetylneuraminic acid]
inhibitory activity against Helicobacter pylori (alone): did not show any inhibitory activity
